Test results taken from paper PMC5131364, “Pharmacologic modulation of RORγt translates to efficacy in preclinical and translational models of psoriasis and inflammatory arthritis” (Scientific Reports, 2016).
Where two headings read alike, the source gives them in different places.

What was measured:
Format in all cases: cell-based
RORβ = biological target: T1, RORβ (Homo sapiens, UniProt Q92753); test: 1-hybrid reporter assay in HEK293T cells (GAL4-RORβ); conditions: HEK-293T
T1 construct: NP_008845, aa 201–459; expressed in transfected cells; host or cells: HEK293T
T1 sequence (Q92753 212-470): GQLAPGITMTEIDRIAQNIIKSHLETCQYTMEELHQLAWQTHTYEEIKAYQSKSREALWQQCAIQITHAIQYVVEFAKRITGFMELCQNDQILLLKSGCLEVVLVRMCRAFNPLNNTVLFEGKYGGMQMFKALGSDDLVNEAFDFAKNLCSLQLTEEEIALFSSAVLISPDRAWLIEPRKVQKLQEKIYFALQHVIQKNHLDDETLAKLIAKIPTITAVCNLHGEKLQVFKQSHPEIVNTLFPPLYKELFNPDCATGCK
Method: The reporter assay was performed by transient co-transfection of HEK293T cells with pCMV-BD (Stratagene #211342) containing the GAL4 DNA-binding domain fused with full-length human RORγt (Genbank accession no. NP_001001523, aa 1–497), pFR-Luc reporter and pRL-CMV reporter (Promega #E2261) plus Carrier DNA (Clontech # 630440) using PEI solution (Sigma Aldrich cat# 40872-7) in a 96-well plate. […] Medium was removed and cells were lysed with Passive Lysis Buffer (Promega). Firefly luciferase buffer was then added and firefly luciferase luminescence was read on BMG LUMIstar OPTIMA luminescence plate reader. One second later, renilla luciferase buffer was then added and renilla luciferase luminescence was read to measure cell viability. For RORα and RORβ activity, similar assays were performed except cells were transfected with pCMV-BD-RORα (Genbank accession no. NP_599022, aa 305–556) or pCMV-BD-RORβ (Genbank accession no. NP_008845, aa 201–459).

[1] = test system: naïve CD4+ T cells under Th17-polarizing conditions; test: In vitro mouse Th17 differentiation; conditions: for IC50: Mus musculus, CD4+ T
Excerpt: (§1) The following antibodies (anti-mouse or anti-human) were purchased from BD Biosciences (San Diego, CA) or eBioscience (San Diego, CA): anti-CD3-FITC (mouse 17A2 and human SK7), anti-CD4-allophycocyanin (APC), anti-CD4-PerCp, anti-CD4-FITC, anti-CD4-PE (mouse GK1.5 and human SK3), anti-CD44-PerCp (mouse IM7), anti-γδ TCR-FITC, anti-γδ TCR-PE (mouse GL3 and human B1), anti-CD62L-FITC (mouse MEL-14 and human SK11), anti-CD45RO-APC (human UCHL1), anti-CCR6-PE (human 11A9), anti-CD45-PerCp (mouse 30-F11). Human or mouse anti-IFNγ (mouse XMG1.2 and human 4S.B3), anti-TNFα (mouse MP6-XT22 and human MAB11), anti-IL-17A (mouse eBio17B7 and human eBio64DEC17), anti-IL-22 (mouse 1H8PWSR and human 22URTI), and anti-Foxp3 (mouse FJK-16s and human 36A/E7), all PE or APC conjugated, were purchased from eBioscience (San Diego, CA). Human and mouse APC conjugated CD1d tetramers pre-loaded with alpha-GalCer and negative controls were obtained from ProImmune. For intracellular staining cells were stimulated for 4 hours at 37 °C with PMA and ionomycin (0.5 μg/ml each) in the presence of brefeldin A and monensin or with leukocyte activation cocktail (BD Bioscience, San Diego, CA). Cells were stained with fluorescence-labeled antibodies for surface marker, then fixed/permeabilized (eBioscience) and stained with antibodies for intracellular cytokines. For Foxp3 staining cells were fixed/permeabilized using transcription factor buffer set (eBioscience). The data were acquired on a FACS Calibur (BD Bioscience) and analyzed using FlowJo software (Tree Star, San Carlos, CA).
Naïve CD4^+ T cells were isolated from splenocytes of C57BL/6N mice using a naïve CD4^+ T cell isolation kit II (Miltenyl Biotec, Auburn, CA), following the manufacturer’s instructions. Cells were resuspended in culture medium (RPMI-1640 medium supplemented with 10% fetal bovine serum, 50 IU/ml penicillin, 50 μg/ml streptomycin, 2 mM glutamine, and 55 μM β-mercaptoethanol), and were added to 96-well plates at 2 × 10^5 per well. […] Cells were incubated for 1 hour, after which Th17 cell differentiation medium was added with final concentrations of 1 μg/ml anti-CD3, 5 μg/mL anti-CD28 (BD Pharmingen, San Diego, CA), 10 μg/ml anti-IL-4, 10 μg/ml anti-IFNγ, 10 ng/mL IL-23, 10 ng/mL IL-6, and 10 ng/ml TGFβ (R&D Systems, Minneapolis, MN). Cells were cultured at 37 °C and 5% CO2 for 3 days. Supernatants were collected and the accumulated cytokines in culture were measured by ELISA kits (R&D Systems, Minneapolis, MN) following manufacturers’ instructions. Cells were harvested for staining and flow cytometry analysis.

mouse splenic γδ T cells = test: Mouse γδ+ T cell in vitro activation; conditions: for IC50: Mus musculus, T-cell, IL-1β/IL-23 plus anti-IFNγ, 65 hours, ELISA
Excerpt: as §1
Mouse γδ^+ T cells were isolated from splenocytes of C57BL/6N mice using TCR γδ^+ T Cell Isolation Kit (Miltenyl Biotec, Auburn, CA), following the manufacturer’s instructions. Cells were resuspended in culture medium and seeded in 96-well plates at 5 × 10^4 per well. […] Cells were incubated at 37 °C and 5% CO2 for 65 hours before sample collection. Supernatant samples were collected for measurement of IL-17A, IL-17F and IL-22 using R&D ELISA kits, according to manufacturer’s instructions. Cytokine-producing cells were analyzed through intracellular staining and flow cytometry analysis.

IC50 (RORβ): > 10 µM | IC50 ([1]; Th17-polarizing condition, supernatant, read-out: IC50, IL-17A production): 17 nM | IC50 ([1]; flow cytometry, read-out: IC50, total IL-17A-producing cells): 21 nM | IC50 (mouse splenic γδ T cells; read-out: IC50, IL-17A production): 77 nM | IC50 (mouse splenic γδ T cells; read-out: IC50, IL-17F production): 54 nM | IC50 (mouse splenic γδ T cells; read-out: IC50, IL-22 production): 83 nM
SMILES: COc1nc2ccc([C@@](O)(c3ccc(C)nc3C)c3cnnn3C)cc2c(Cl)c1Cc1ccc(C(F)(F)F)cc1 [JNJ-54271074]
IL-17A-producing cells ([1]; 1 μM, flow cytometry): almost completely abolished | TNFα production ([1]; Th17-polarizing condition, supernatant): did not inhibit | decrease of the percentage of IL-17A- and IL-17A/IL-22-producing cells (mouse splenic γδ T cells; 0.1 μM): about 50%
